Experimental findings from US10077261B2, “Imidazolin-5-one derivative useful as FASN inhibitors for the treatment of cancer” (Janssen Pharmaceutica NV, priority 2012, dated 2018) are described below.

In assay [1] the target is T1, hFASN enzyme (full length) (Homo sapiens, UniProt P49327).
T1 construct: 10 μL hFASN enzyme (full length, 300 ng, purified in house); made in house
Briefly: Fatty Acid Synthase (FASN) inhibition scintillation proximity assay. In kind it is biochemical. The following applies: for inhibition at 10 µM: read-out: Human FASN % inhibition @ 10 μM, 10 μM test compound; for IC50: read-out: Human FASN pIC50 (converted). The method in brief:
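Compounds at 0.01–30 μM were mixed with 300 ng purified full-length enzyme in 100 mM KH2PO4 pH 7.5, 1 mM DTT. Substrates ³H-acetyl-CoA and malonyl-CoA were then converted, and bead addition stopped the reaction. Signal was normalised to low and high plate controls and fitted by 4-parameter nonlinear regression.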

The test system of assay [2] is A2780 ovarian cells. Put plainly: A2780 ovarian cell proliferation assay in lipid reduced medium, with palmitate (MTT). Format: cell-based. Conditions: Homo sapiens, A2780, 96 h; read-out: pIC50 A2780 Ovarian Cell, With Palmitate (converted). The essentials: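 Seeded cells were switched next day to lipid-reduced serum, exposed to compound and 25 μM palmitate complexed with fatty-acid-free BSA, and incubated 96 h. Proliferation was then determined by MTT absorbance at 544 nm, with a best-fit curve of signal against concentration.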

Assay [3] relates to A2780 ovarian cells. Put plainly: A2780 ovarian cell proliferation assay in lipid reduced medium, without palmitate (MTT). Format: cell-based. The following applies: Homo sapiens, A2780, 96 h; read-out: pIC50 A2780 Ovarian Cell, Without Palmitate (converted).
In assay [4] the test system is LNCaP-Vancouver prostate cells. Briefly: In vitro LNCaP Vancouver prostate cell proliferation assay in lipid reduced medium. Format: cell-based. The following applies: read-out: pIC50 LNCaP_Vancouver prostate cell (converted).
In assay [5] the test system is PC-3M-Luc-C6 prostate cells. Put plainly: In vitro PC-3M-Luc-C6 prostate cell proliferation assay in lipid reduced medium. In kind it is cell-based. Conditions: 96 h, read-out: pIC50 PC-3M-Luc-C6 prostate cell (converted).
For assay [6], the target named is Fatty Acid Synthase Keto-reductase Domain (FASN KR) (Homo sapiens, UniProt P49327). Briefly: Fatty Acid Synthase keto-reductase domain (FASN KR) inhibition, NADPH oxidation at 340 nm.
Sequence of Fatty Acid Synthase Keto-reductase Domain (FASN KR) (P49327 whole entry, the tested form may be a part): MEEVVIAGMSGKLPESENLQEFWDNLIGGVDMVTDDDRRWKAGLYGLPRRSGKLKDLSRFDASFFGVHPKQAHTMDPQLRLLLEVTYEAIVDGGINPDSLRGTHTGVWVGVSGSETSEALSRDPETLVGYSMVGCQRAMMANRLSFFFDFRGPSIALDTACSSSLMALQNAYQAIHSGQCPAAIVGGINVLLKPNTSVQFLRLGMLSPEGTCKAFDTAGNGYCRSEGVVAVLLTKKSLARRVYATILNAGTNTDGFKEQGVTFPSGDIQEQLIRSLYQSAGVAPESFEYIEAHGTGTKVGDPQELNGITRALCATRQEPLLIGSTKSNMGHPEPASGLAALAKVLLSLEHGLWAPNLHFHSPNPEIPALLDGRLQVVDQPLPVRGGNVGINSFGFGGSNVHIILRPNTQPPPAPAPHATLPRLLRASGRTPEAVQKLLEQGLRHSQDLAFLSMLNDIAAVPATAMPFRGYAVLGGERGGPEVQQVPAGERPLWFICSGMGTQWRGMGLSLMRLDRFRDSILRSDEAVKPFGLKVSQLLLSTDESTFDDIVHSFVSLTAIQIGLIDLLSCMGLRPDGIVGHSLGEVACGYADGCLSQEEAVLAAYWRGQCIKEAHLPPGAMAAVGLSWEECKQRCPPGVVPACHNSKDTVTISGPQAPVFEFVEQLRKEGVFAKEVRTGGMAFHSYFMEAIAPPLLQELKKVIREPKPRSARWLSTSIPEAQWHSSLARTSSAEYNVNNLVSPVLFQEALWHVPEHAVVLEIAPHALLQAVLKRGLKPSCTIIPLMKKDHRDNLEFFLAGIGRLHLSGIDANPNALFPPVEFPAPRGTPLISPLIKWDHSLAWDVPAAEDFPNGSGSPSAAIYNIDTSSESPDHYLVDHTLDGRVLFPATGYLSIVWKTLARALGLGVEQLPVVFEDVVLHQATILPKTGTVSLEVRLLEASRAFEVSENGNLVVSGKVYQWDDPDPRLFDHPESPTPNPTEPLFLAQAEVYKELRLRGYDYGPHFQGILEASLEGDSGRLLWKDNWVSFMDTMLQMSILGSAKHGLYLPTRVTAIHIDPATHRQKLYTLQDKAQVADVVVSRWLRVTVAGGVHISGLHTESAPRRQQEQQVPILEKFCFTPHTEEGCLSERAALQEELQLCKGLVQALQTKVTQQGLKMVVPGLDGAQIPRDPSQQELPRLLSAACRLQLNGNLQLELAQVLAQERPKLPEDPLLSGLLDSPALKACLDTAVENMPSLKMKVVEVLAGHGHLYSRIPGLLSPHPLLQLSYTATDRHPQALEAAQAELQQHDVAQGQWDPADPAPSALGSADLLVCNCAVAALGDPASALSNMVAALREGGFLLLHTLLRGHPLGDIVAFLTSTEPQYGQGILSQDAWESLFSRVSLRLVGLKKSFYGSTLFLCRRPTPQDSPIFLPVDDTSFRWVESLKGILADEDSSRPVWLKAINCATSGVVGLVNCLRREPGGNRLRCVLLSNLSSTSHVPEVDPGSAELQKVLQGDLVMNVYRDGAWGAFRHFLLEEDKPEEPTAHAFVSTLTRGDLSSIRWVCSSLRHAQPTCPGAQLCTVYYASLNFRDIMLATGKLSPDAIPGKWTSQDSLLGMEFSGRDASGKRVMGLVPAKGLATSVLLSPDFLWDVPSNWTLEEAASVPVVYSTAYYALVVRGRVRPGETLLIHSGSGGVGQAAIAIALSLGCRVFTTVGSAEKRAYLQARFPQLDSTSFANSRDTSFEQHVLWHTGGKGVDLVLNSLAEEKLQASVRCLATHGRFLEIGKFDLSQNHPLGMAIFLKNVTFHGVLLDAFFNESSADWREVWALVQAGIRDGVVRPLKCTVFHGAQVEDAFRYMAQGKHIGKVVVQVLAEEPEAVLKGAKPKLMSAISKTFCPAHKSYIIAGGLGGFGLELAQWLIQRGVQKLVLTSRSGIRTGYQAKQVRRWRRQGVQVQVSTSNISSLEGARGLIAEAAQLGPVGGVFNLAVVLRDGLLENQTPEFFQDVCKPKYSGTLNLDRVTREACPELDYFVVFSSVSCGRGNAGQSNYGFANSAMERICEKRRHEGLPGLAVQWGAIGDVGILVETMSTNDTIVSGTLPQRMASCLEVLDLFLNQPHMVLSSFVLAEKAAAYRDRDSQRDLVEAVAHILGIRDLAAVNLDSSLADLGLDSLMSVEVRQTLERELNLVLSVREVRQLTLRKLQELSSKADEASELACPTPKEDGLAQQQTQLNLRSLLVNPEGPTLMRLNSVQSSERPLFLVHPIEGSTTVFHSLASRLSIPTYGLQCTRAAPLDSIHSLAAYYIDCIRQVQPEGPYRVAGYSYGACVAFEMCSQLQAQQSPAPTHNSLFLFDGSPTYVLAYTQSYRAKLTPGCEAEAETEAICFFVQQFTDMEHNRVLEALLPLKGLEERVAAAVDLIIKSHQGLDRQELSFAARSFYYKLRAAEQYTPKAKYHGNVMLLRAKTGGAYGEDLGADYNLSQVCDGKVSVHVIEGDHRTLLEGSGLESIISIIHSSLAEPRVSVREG
Procedure: After 20 minutes incubation at room temperature the plate was measured again (T2).
The decrease in absorbance was calculated as (Absorbance before incubation T1)−(Absorbance following incubation T2).
A plot of Controlmin versus test compound concentration was fitted to a 4-parameter logistic curve using a non-linear least squares regression method.

One may read the inhibition as the relative decrease from the control value, in per cent.

Some results are limits rather than exact numbers.

T1 sequence (P49327 whole entry): as the sequence (P49327 whole entry, the tested form may be a part) above

For the compound `O=C(C1CC1)N1CC[C@@H](CN2C(=O)C3(CC3)N=C2c2ccc(-c3nc4ccccc4o3)cc2)C1` [compound 307, (R)-5-(4-(benzo[d]oxazol-2-yl)phenyl)-6-((1-(cyclopropanecarbonyl)pyrrolidin-3-yl)methyl)-4,6-diazaspiro[2.4]hept-4-en-7-one], the inhibition at 10 µM in assay [1] amounted to 100%. Moreover, the IC50 was 67.6 nM in assay [1]; greater than 10 µM in the assay with A2780 ovarian cells [2]; 91.2 nM in the assay with A2780 ovarian cells [3]; 661 nM in assay [4]; 102 nM in assay [5]; 145 nM in assay [6].
`O=C(C1CC1)N1CC[C@@H](CN2C(=O)C3(CC3)N=C2c2ccc(-c3nc4ccccc4s3)cc2)C1` [compound 308, (R)-5-(4-(benzo[d]thiazol-2-yl)phenyl)-6-((1-(cyclopropanecarbonyl)pyrrolidin-3-yl)methyl)-4,6-diazaspiro[2.4]hept-4-en-7-one]: the inhibition at 10 µM in assay [1] amounted to 102%. Besides, the IC50 was 47.9 nM in assay [1]; greater than 10 µM in the assay on A2780 ovarian cells [2]; 145 nM in the assay with A2780 ovarian cells [3]; 479 nM in assay [4]; 100 nM in assay [5]; 129 nM in assay [6].
For `O=C(C1CC1)N1CC[C@@H](CN2C(=O)C3(CC3)N=C2c2ccc(-c3cccc4ncccc34)cc2)C1` [compound 310, (R)-6-((1-(cyclopropanecarbonyl)pyrrolidin-3-yl)methyl)-5-(4-(quinolin-5-yl)phenyl)-4,6-diazaspiro[2.4]hept-4-en-7-one], the inhibition at 10 µM in assay [1] was 102%. Besides, the IC50 in assay [1] was 39.8 nM; in the assay with A2780 ovarian cells [2], greater than 6.17 µM; in the assay on A2780 ovarian cells [3], 589 nM; in assay [4], 813 nM; in assay [5], roughly 324 nM; in assay [6], 60.3 nM.
With `O=C(C1CC1)N1CC[C@@H](CN2C(=O)C3(CC3)N=C2c2ccc(-c3ccc4cccc(F)c4c3)cc2)C1` [compound 313, (R)-6-((1-(cyclopropanecarbonyl)pyrrolidin-3-yl)methyl)-5-(4-(8-fluoronaphthalen-2-yl)phenyl)-4,6-diazaspiro[2.4]hept-4-en-7-one], in assay [1], the inhibition at 10 µM stood at 99%. In addition, the IC50 in assay [1] is 38.9 nM; in the assay on A2780 ovarian cells [2], 8.71 µM; in the assay on A2780 ovarian cells [3] it was 53.7 nM; in assay [4] it was 155 nM; in assay [5] it was roughly 52.5 nM; in assay [6] it was 52.5 nM.
Regarding `Cc1cc(-c2ccc(-c3cnn(C)c3)cc2)ccc1C1=NC2(CC2)C(=O)N1C[C@@H]1CCN(C(=O)C2CC2)C1` [compound 316, (R)-6-((1-(cyclopropanecarbonyl)pyrrolidin-3-yl)methyl)-5-(3-methyl-4′-(1-methyl-1H-pyrazol-4-yl)-[1,1′-biphenyl]-4-yl)-4,6-diazaspiro[2.4]hept-4-en-7-one], the inhibition at 10 µM in assay [1] is 108%. Moreover, the IC50 is 41.7 nM in assay [1]; greater than 10 µM with A2780 ovarian cells [2]; roughly 15.8 nM with A2780 ovarian cells [3]; 102 nM in assay [4]; 19.5 nM in assay [5]; 75.9 nM in assay [6].
For `Cc1cc2cc(-c3ccc(C4=NC5(CC5)C(=O)N4C[C@@H]4CCN(C(=O)C5CC5)C4)c(C)c3)ccc2[nH]1` [compound 317], the inhibition at 10 µM in assay [1] came out at 103%. The IC50 in assay [1] is 57.5 nM; in the assay with A2780 ovarian cells [2] it was greater than 10 µM; in the assay on A2780 ovarian cells [3], 24.5 nM; in assay [4], 257 nM; in assay [5], 51.3 nM; in assay [6] it was 58.9 nM.
For `Cc1cc2cc(-c3ccc(C4=NC5(CC5)C(=O)N4C[C@@H]4CCN(C(=O)C5CC5)C4)c(F)c3)ccc2[nH]1` [compound 319, (R)-6-((1-(cyclopropanecarbonyl)pyrrolidin-3-yl)methyl)-5-(2-fluoro-4-(2-methyl-1H-indol-5-yl)phenyl)-4,6-diazaspiro[2.4]hept-4-en-7-one], the inhibition at 10 µM in assay [1] was found to be 105%. The IC50 in assay [1] was 28.8 nM; in the assay on A2780 ovarian cells [2], greater than 10 µM; in the assay with A2780 ovarian cells [3] it was roughly 13.5 nM; in assay [4] it was 112 nM; in assay [5], 18.6 nM; in assay [6], 53.7 nM.
Consider `O=C(C1CC1)N1CC(CN2C(=O)C3(CC3)N=C2c2ccc(-c3ccc4cc(Cl)ccc4c3)cc2F)C1` [compound 320, 5-(4-(6-chloronaphthalen-2-yl)-2-fluorophenyl)-6-((1-(cyclopropanecarbonyl)azetidin-3-yl)methyl)-4,6-diazaspiro[2.4]hept-4-en-7-one], for which the inhibition at 10 µM in assay [1] was 102%. The IC50 in assay [1] was 25.7 nM; in the assay on A2780 ovarian cells [2], 6.46 µM; with A2780 ovarian cells [3], 25.1 nM; in assay [4], 251 nM; in assay [5], 50.1 nM; in assay [6] it was roughly 26.9 nM.
`Cc1cc(-c2ccc3cc(Cl)ccc3c2)ccc1C1=NC2(CC2)C(=O)N1CC1CN(C(=O)C2(C)CC2)C1` [compound 321, 5-(4-(6-chloronaphthalen-2-yl)-2-methylphenyl)-6-((1-(1-methylcyclopropanecarbonyl)azetidin-3-yl)methyl)-4,6-diazaspiro[2.4]hept-4-en-7-one]: in assay [1], the inhibition at 10 µM was determined as 99%. For the same compound, the IC50 in assay [1] is 30.2 nM; with A2780 ovarian cells [2], 4.37 µM; in the assay on A2780 ovarian cells [3], 17.8 nM; in assay [4], 182 nM; in assay [5], 50.1 nM; in assay [6] it was 47.9 nM.
Turning to `Cn1cc(-c2ccc(-c3ccc(C4=NC5(CC5)C(=O)N4CC4CN(C(=O)C5CC5)C4)c(F)c3)cc2)cn1` [compound 322, 6-((1-(cyclopropanecarbonyl)azetidin-3-yl)methyl)-5-(3-fluoro-4′-(1-methyl-1H-pyrazol-4-yl)-[1,1′-biphenyl]-4-yl)-4,6-diazaspiro[2.4]hept-4-en-7-one], the inhibition at 10 µM in assay [1] was 102%. Also, the IC50 in assay [1] was 38 nM; in the assay on A2780 ovarian cells [2] it was greater than 10 µM; in the assay on A2780 ovarian cells [3] it was 14.8 nM; in assay [4] it was 151 nM; in assay [5] it was roughly 34.7 nM; in assay [6], 79.4 nM.
In the case of `Cn1cc(-c2ccc(-c3ccc(C4=NC5(CC5)C(=O)N4C[C@@H]4CCN(C(=O)C5CC5)C4)c(F)c3)cc2)cn1` [compound 323, (R)-6-((1-(cyclopropanecarbonyl)pyrrolidin-3-yl)methyl)-5-(3-fluoro-4′-(1-methyl-1H-pyrazol-4-yl)-[1,1′-biphenyl]-4-yl)-4,6-diazaspiro[2.4]hept-4-en-7-one], in assay [1], the inhibition at 10 µM was 101%. Also, the IC50 in assay [1] was 25.1 nM; with A2780 ovarian cells [2], greater than 10 µM; with A2780 ovarian cells [3], roughly 2.88 nM; in assay [4], 33.1 nM; in assay [5], 8.32 nM; in assay [6] it was 44.7 nM.
Consider `O=C(C1CC1)N1CC(CN2C(=O)C3(CC3)N=C2c2ccc(-c3ccc4ccc(F)cc4c3)cc2F)C1` [compound 324, 6-((1-(cyclopropanecarbonyl)azetidin-3-yl)methyl)-5-(2-fluoro-4-(7-fluoronaphthalen-2-yl)phenyl)-4,6-diazaspiro[2.4]hept-4-en-7-one], for which the inhibition at 10 µM in assay [1] was 105%. For the same compound, the IC50 in assay [1] was 32.4 nM; with A2780 ovarian cells [2] it was greater than 10 µM; in the assay on A2780 ovarian cells [3] it was 19.5 nM; in assay [4], 158 nM; in assay [5] it was roughly 30.2 nM; in assay [6], 67.6 nM.
Regarding `Cc1cc(-c2ccc(-c3cnn(C(C)C)c3)cc2)ccc1C1=NC2(CC2)C(=O)N1CC1CN(C(=O)C2CC2)C1` [compound 325, 6-((1-(cyclopropanecarbonyl)azetidin-3-yl)methyl)-5-(4′-(1-isopropyl-1H-pyrazol-4-yl)-3-methyl-[1,1′-biphenyl]-4-yl)-4,6-diazaspiro[2.4]hept-4-en-7-one], in assay [1], the inhibition at 10 µM was determined as 100%. Further, the IC50 in assay [1] was 79.4 nM; in the assay with A2780 ovarian cells [2] it was greater than 10 µM; with A2780 ovarian cells [3], roughly 49 nM; in assay [4], 363 nM; in assay [5], 83.2 nM; in assay [6], 490 nM.
In the case of `Cc1cc(-c2ccc(-c3cnn(C4CC4)c3)cc2)ccc1C1=NC2(CC2)C(=O)N1CC1CN(C(=O)C2CC2)C1` [compound 326, 6-((1-(cyclopropanecarbonyl)azetidin-3-yl)methyl)-5-(4′-(1-cyclopropyl-1H-pyrazol-4-yl)-3-methyl-[1,1′-biphenyl]-4-yl)-4,6-diazaspiro[2.4]hept-4-en-7-one], in assay [1], the inhibition at 10 µM came out at 103%. Moreover, the IC50 in assay [1] was 39.8 nM; with A2780 ovarian cells [2] it was 9.12 µM; in the assay on A2780 ovarian cells [3], roughly 12 nM; in assay [4], 170 nM; in assay [5], 49 nM; in assay [6], 407 nM.
Take `CC(C)n1cc(-c2ccc(-c3ccc(C4=NC5(CC5)C(=O)N4CC4CN(C(=O)C5CC5)C4)c(F)c3)cc2)cn1` [compound 327, 6-((1-(cyclopropanecarbonyl)azetidin-3-yl)methyl)-5-(3-fluoro-4′-(1-isopropyl-1H-pyrazol-4-yl)-[1,1′-biphenyl]-4-yl)-4,6-diazaspiro[2.4]hept-4-en-7-one]: the inhibition at 10 µM in assay [1] amounted to 104%. The IC50 is 32.4 nM in assay [1]; 8.13 µM in the assay on A2780 ovarian cells [2]; 10.5 nM in the assay with A2780 ovarian cells [3]; 138 nM in assay [4]; 34.7 nM in assay [5]; 158 nM in assay [6].
